Laboratory results published in patent publication US11161989B2, “Near-infrared absorbing composition, optical structure, and camera module and electronic device comprising the same” (priority 2018, dated 2021).

Legend:
[1] = Wavelength vs. absorbance of near-infrared absorbing compositions (UV-Vis spectrophotometer); format: physicochemical; settings: for A430-565 (average absorbance in a visible light wavelength region) / λNIR (maximum absorption wavelength): 10 mg/mL in THF; for ANIR (maximum absorbance): THF concentration condition of 10 mg/mL; for Absorption area of near-infrared wavelength region: curve integrated from 700 nm to 1100 nm; for Absorption area of near-infrared wavelength region / Cut-off wavelength: composition in THF; for Cut-off wavelength: wavelength of 50% light transmittance after normalizing maximum absorbance to 1
Description: In Table 3, the “absorption area of a near-infrared wavelength region” is an area obtained by integrating each curve in a wavelength range from 700 nm to 1100 nm in FIG. 7, and the “cut-off wavelength” is a wavelength where each curve has light transmittance of 50% after normalizing absorbance corresponding to a y-axis of FIG. 7 to have a maximum absorbance of 1 and then, converting the normalized absorbance (An) into light transmittance (T) to satisfy Equation 1. T (%)=10^(2-An).

[2] = Solubility of the copper complex in an organic solvent; format: physicochemical; settings: organic solvent THF
Description: In Table 1, the “solubility” is evaluated as °, when greater than or equal to 50 wt % of a copper complex based on 100 wt % of an entire composition is dissolved in a corresponding organic solvent, and as X, when less than 50 wt % of a copper complex based on 100 wt % of an entire composition is dissolved in a corresponding organic solvent, and “ANIR” is measured under a THF concentration condition of 10 mg/m L.
In Table 2, “solubility” uses the same reference as Table 1.

SMILES | A430-565 (average absorbance in a visible light wavelength region) [1] | λNIR (maximum absorption wavelength) [1] | ANIR (maximum absorbance) [1] | Absorption area of near-infrared wavelength region [1] | Cut-off wavelength [1] | Solubility [2]
O=C([O][Cu][O]C(=O)C(F)(F)F)C(F)(F)F [Comparative Example 1, reference compound] | 0.020 | 771 nm | 1.05 | 328 | 636 nm | ∘
C=C(C)C(=O)OCCOP(=O)(O)[O][Cu][O]P(=O)(O)OCCOC(=O)C(=C)C [Comparative Example 2, reference compound] | 0.001 | 826 nm | 0.42 | 144 | 740 nm | ∘
CCOP(=O)(O)[O][Cu][O]C(=O)C(F)(F)F [Example 2] | 0.013 | 794 nm | 1.16 |  |  | ∘
CC(C)OP(=O)(O)[O][Cu][O]C(=O)C(F)(F)F [Example 3] | 0.008 | 794 nm | 1.04 |  |  | ∘
O=C([O][Cu][O]P(=O)(Oc1ccccc1)Oc1ccccc1)C(F)(F)F [Example 4] | 0.005 | 814 nm | 0.85 |  |  | ∘
C=C(C)C(=O)OCCOP(=O)(O)[O][Cu][O]C(=O)C(F)(F)F [Example 5] | 0.010 | 814 nm | 0.66 |  |  | ∘
Cc1ccc(S(=O)(=O)[O][Cu][O]C(=O)C(F)(F)F)cc1 [Example 6] | 0.006 | 825 nm | 0.70 | 234 | 676 nm | ∘
